Data: patent publication US10398659B2, “Adjuvant chemotherapy for anaplastic gliomas” (OKLAHOMA MEDICAL RESEARCH FOUNDATION, priority 2008, dated 2019)
Where a name gives a salt, the structure may show the parent alone.

Key:
[1] = in vivo; cited from earlier work
C6 cells = assay: cell proliferation; assay type: cell-based, rat; conditions: concentration dependence
iNOS = iNOS protein expression in C6 cells; assay type: cell-based, rat; conditions: 100 μM
Source text: (§1) The inventors then examined iNOS and VEGF protein expressions in the 2,4-ds-PBN treated C6 cells.

[2] = rats; cited from earlier work
C6 gliomas = conditions: cited from earlier work
C6 glioma = assay: intracerebral C6 rat glioma cell implantation model, MR imaging; assay type: in vivo
Description: The inventors used an intracerebral C6 rat glioma cell implantation method, widely accepted by the glioma research field, as a good model for gliomas. To induce glioma in rats, C6 rat glioma cells (10^6 cells in 10 μL were injected into the cerebral cortex of male Fischer 344 rats. Fifteen days later, 2,4-ds-PBN was orally administered through drinking water (0.015%, 17.5 mg/kg). The efficacy of 2,4-ds-PBN was assessed with the tumor growth patterns and growth rates by using magnetic resonance (MR) imaging (T1/T2-weighted imaging) methods over the course of a month.
(§2) FIG. 4 represents a series of MR images taken over a period of 25 days for an untreated control group and representative data (best-case, average effect, and worst-case) for 2,4-ds-PBN-treated rats (via drinking water administration at a dose of 17 mg/kg/day). […] Rats treated with 2,4-ds-PBN achieved >80% survival over the 40 day study period (n=15), compared to non-treated rats (n=5). […] Gross signs of adverse effects that were monitored included weight loss, ruffling of fur, and behavioural and postural changes.

VEGF = VEGF protein expression in C6 cells; assay type: cell-based, rat; conditions: 5 mM
Source text: as §1

[3] = monitoring of adverse effects and toxicity in treated glioma rats; assay type: in vivo
Source text: . n=15 for 2,4-ds-PBN-treated rats, and n=5 for non-treated rats) in 2,4-ds-PBN-treated rats (see FIG. 5). Rats treated with 2,4-ds-PBN achieved >80% survival over the 40 day study period (n=15), compared to non-treated rats (n=5). […] Gross signs of adverse effects that were monitored included weight loss, ruffling of fur, and behavioural and postural changes.

[4] = tested on: pro-caspase 3 and pro-caspase 9; assay: Western blots of apoptotic factors in C6 cells; assay type: cell-based, rat; conditions: increasing concentrations
Description: FIG. 6: Western blots of rat C6 cells with increasing concentrations of 2,4-ds-PBN. Increasing levels of apoptotic factors pro-caspase 3 and pro-caspase 9 are shown, relative to actin.
as §2

solubility in water = assay type: physicochemical; conditions: free acid
Source text: The product so formed is the free acid and is characterized by a molecular weight of […]. It is a white powdery material which decomposes upon heating. […]; 8.836 ppm (d, 8.4 Hz); 8.839 ppm (d, 1.7 Hz); 8.774 ppm (s).

For CC[C@]1(O)C[C@H]2CN(CCc3c([nH]c4ccccc34)[C@@](C(=O)OC)(c3cc4c(cc3OC)N(C=O)[C@H]3[C@@](O)(C(=O)OC)[C@H](OC(C)=O)[C@]5(CC)C=CCN6CC[C@]43[C@@H]65)C2)C1 [Vincristine, vincaleukoblastine, a 22-oxo-, sulfate (1:1) (salt)], the blood-brain-barrier penetration [1] is listed as “does not appear to cross the blood brain barrier”.
For CC(C)(C)[N+]([O-])=Cc1ccccc1 [PBN, phenyl N-tert-butyl nitrone], the “inhibition of cell proliferation” value (C6 cells) is listed as “significantly inhibited cell proliferation in a concentration dependent manner”, the iNOS expression decrease (iNOS) is listed as 5% and the blood-brain-barrier penetration [1] is listed as “easily penetrate the BBB”. For the same compound, the half-life [2] was “about 132 minutes”, the “effect on tumor growth, pretreatment” value (C6 gliomas; PBN administration as a pretreatment, rat C6 glioma) was “decrease in growth rate and tumor regression” and the “effect on tumor regression, post-treatment” value (C6 gliomas; post-treatment of PBN, compared with pre-treatment) was “little effect for tumor regression”.
In the case of O=NN(CCCl)C(=O)NC1CCCCC1 [Lomustine, 1-(2-chloroethyl)-3-cyclohexyl-1-nitrosourea], the blood-brain-barrier penetration [1] is given as “crosses the blood brain barrier”.
For CC(C)(C)[N+]([O-])=Cc1ccc(S(=O)(=O)O)cc1S(=O)(=O)O [2,4-ds-PBN, 2,4-disulfonyl phenyl tert-butyl nitrone], the “C6 glioma tumor volumes decrease” value (C6 glioma; 17 mg/kg/day via drinking water from day 15 after cell implantation, vs non-treated rats, n=15 vs n=5) was greater than 15 fold, the “survival over the 40 day study period” value (C6 glioma; 2,4-ds-PBN in drinking water, n=15, compared to non-treated rats (n=5)) was greater than 80% and the VEGF expression reduction (VEGF) was 50%. For the same compound, the “inhibition of cell proliferation” value (C6 cells) was “little effect”, the toxicity effects ([3]; rat, in vivo) was “No toxicity effects were detected” and the “side effects during the treatment period” value ([3]; weight loss, ruffling of fur, behavioural and postural changes monitored) was “No side effects were observed”. The iNOS expression decrease (iNOS) was “approximately 75%”, the blood-brain-barrier penetration [1] was “cannot easily pass through the BBB” and the “apoptotic effect (pro-caspase 3, pro-caspase 9 levels relative to actin)” value [4] was “pro-apoptotic as concentration increases”. The solubility (solubility in water) was greater than 1000 mg/mL.
With CC(C)(C)/[N+]([O-])=C/c1ccccc1S(=O)(=O)O [S-PBN] the “inhibition of cell proliferation” value (C6 cells) was “little effect”.
